Source: patent publication US20190100534A1, “Cephem Compounds with Latent Reactive Groups” (Gladius Pharmaceuticals, Inc., priority 2017, published 2019)

Experiments:
EA (URMC -3) = assay: MIC determination; assay type: cell-based; details: CAMH broth, 20 μM Apo-Transferrin, 37° C., 18 hours
Procedure: (§1) Sterile technique was used throughout these experiments. Suspensions of organisms were removed from storage (−80° C.) and partially thawed. Partially thawed organisms (1 μL) were inoculated into 3 mL sterile LB Broth in a sterile culture tube and capped, then cultured at 37° C. with shaking for 4-5 hours until the optical density at 600 nm (OD600) was greater than 0.1 on a single beam spectrophotometer.
(§2) The concentration of organisms was adjusted to 0.08-0.1 OD600 (0.5 McFarland units) by dilution with sterile cation-adjusted Meuller-Hinton (CAMH) broth. The suspensions were used within 30 minutes of preparation.
(§3) A stock solution was made of each test compound by measuring 6.4 mg of the compound on an analytical balance and dissolving it in DMSO (1 mL) to get a transparent solution. The solutions were stored at −20° C. and thawed prior to use.
(§4) Sterile CAMH broth (200 μL) containing 20 μM Apo-Transferrin was pipetted into the first row of 8 columns of a sterile, round-bottomed, transparent, 96-well microplate using an 8-channel pipette equipped with sterile tips. One hundred μL was pipetted into the wells of the remaining 11 rows.
To each well of the first row was pipetted 2.0 μL of the 6.4 mg/mL stock test compound stock solution to give 1:100 dilutions and a final concentration of 64 μg/mL and mixed.
(§5) With an 8-channel pipette equipped with sterile tips, 100 μL of the first row solution was transferred to the second row and mixed. The process was repeated for the second to third rows and continued through row 11. One hundred μL from row 11 was removed and discarded so that all 12 rows contained 100 μL. Row 12 contained no compound and rows 1-11 contained 64, 32, 16, 8, 4, 2, 1, 0.5, 0.25, 0.125, […] of a given compound.
(§6) Inoculant suspensions (0.5 μL) were added to the 12 wells of each column. The plates were then covered and incubated at 37° C. overnight for 18 hours.
(§7) For each organism the MIC was determined by identifying the transparent well with the lowest test compound concentration.

EC (URMC-2) = assay: MIC determination; assay type: cell-based, Escherichia coli; details: Escherichia coli, CAMH broth, 20 μM Apo-Transferrin, 37° C., 18 hours, read-out: Minimum Inhibitory Concentrations, EC (URMC-2)
Procedure: as §1, §2, §3, §4, §5, §6, §7

EC(KB2 CTX-M-15) = assay: MIC determination; assay type: cell-based, Escherichia coli; details: Escherichia coli, CAMH broth, 20 μM Apo-Transferrin, 37° C., 18 hours, read-out: Minimum Inhibitory Concentrations, EC(KB2 CTX-M-15)
Procedure: as §1, §2, §3, §4, §5, §6, §7

EC (RR -2) = assay: MIC determination; assay type: cell-based, Escherichia coli; details: CAMH broth, 20 μM Apo-Transferrin, 37° C., 18 hours
Procedure: as §1, §2, §3, §4, §5, §6, §7

EC(JMI OXA-48) = assay: MIC determination; assay type: cell-based, Escherichia coli; details: Escherichia coli, CAMH broth, 20 μM Apo-Transferrin, 37° C., 18 hours, read-out: Minimum Inhibitory Concentrations, EC(JMI OXA-48)
Procedure: as §1, §2, §3, §4, §5, §6, §7

EC(KB1 CTX-M-15) = assay: MIC determination; assay type: cell-based, Escherichia coli; details: Escherichia coli, CAMH broth, 20 μM Apo-Transferrin, 37° C., 18 hours, read-out: Minimum Inhibitory Concentrations, EC(KB1 CTX-M-15)
Procedure: as §1, §2, §3, §4, §5, §6, §7

EC (URMC-3) = assay: MIC determination; assay type: cell-based, Escherichia coli; details: Escherichia coli, CAMH broth, 20 μM Apo-Transferrin, 37° C., 18 hours, read-out: Minimum Inhibitory Concentrations, EC (URMC-3)
Procedure: as §1, §2, §3, §4, §5, §6, §7

EC (URMC-1) = assay: MIC determination; assay type: cell-based, Escherichia coli; details: Escherichia coli, CAMH broth, 20 μM Apo-Transferrin, 37° C., 18 hours, read-out: Minimum Inhibitory Concentrations, EC (URMC-1)
Procedure: as §1, §2, §3, §4, §5, §6, §7

EC (RR -1) = assay: MIC determination; assay type: cell-based, Escherichia coli; details: CAMH broth, 20 μM Apo-Transferrin, 37° C., 18 hours
Procedure: as §1, §2, §3, §4, §5, §6, §7

EC(ATCC NDM-1) = assay: MIC determination; assay type: cell-based, Escherichia coli; details: Escherichia coli, CAMH broth, 20 μM Apo-Transferrin, 37° C., 18 hours, read-out: Minimum Inhibitory Concentrations, EC(ATCC NDM-1)
Procedure: as §1, §2, §3, §4, §5, §6, §7

KP(ATCC TEM-10/TEM-12) = assay type: cell-based, Klebsiella pneumoniae; details: CAMH broth, 20 μM Apo-Transferrin, 37° C., 18 hours
Procedure: as §1, §2, §3, §4, §5, §6, §7

KP (RR -1) = assay: MIC determination; assay type: cell-based, Klebsiella pneumoniae; details: CAMH broth, 20 μM Apo-Transferrin, 37° C., 18 hours
Procedure: as §1, §2, §3, §4, §5, §6, §7

KP(GJ 5934 TEM-26) = assay: MIC determination; assay type: cell-based, Klebsiella pneumoniae; details: CAMH broth, 20 μM Apo-Transferrin, 37° C., 18 hours
Procedure: as §1, §2, §3, §4, §5, §6, §7

KP (ATCC KPC-3) = assay: MIC determination; assay type: cell-based, Klebsiella pneumoniae; details: CAMH broth, 20 μM Apo-Transferrin, 37° C., 18 hours
Procedure: as §1, §2, §3, §4, §5, §6, §7

KP (URMC-3) = assay: MIC determination; assay type: cell-based, Klebsiella pneumoniae; details: CAMH broth, 20 μM Apo-Transferrin, 37° C., 18 hours
Procedure: as §1, §2, §3, §4, §5, §6, §7

KP (GJ 5659 TEM-26) = assay: MIC determination; assay type: cell-based, Klebsiella pneumoniae; details: CAMH broth, 20 μM Apo-Transferrin, 37° C., 18 hours
Procedure: as §1, §2, §3, §4, §5, §6, §7

KP(JMI KPC-2) = assay: MIC determination; assay type: cell-based, Klebsiella pneumoniae; details: CAMH broth, 20 μM Apo-Transferrin, 37° C., 18 hours
Procedure: as §1, §2, §3, §4, §5, §6, §7

KP (URMC-1) = assay: MIC determination; assay type: cell-based, Klebsiella pneumoniae; details: CAMH broth, 20 μM Apo-Transferrin, 37° C., 18 hours
Procedure: as §1, §2, §3, §4, §5, §6, §7

KP (URMC-2) = assay: MIC determination; assay type: cell-based, Klebsiella pneumoniae; details: CAMH broth, 20 μM Apo-Transferrin, 37° C., 18 hours
Procedure: as §1, §2, §3, §4, §5, §6, §7

ENA (URMC-2) = assay: MIC determination; assay type: cell-based, Enterobacter aerogenes; details: Klebsiella aerogenes, CAMH broth, 20 μM Apo-Transferrin, 37° C., 18 hours, read-out: Minimum Inhibitory Concentrations, ENA (URMC-2)
Procedure: as §1, §2, §3, §4, §5, §6, §7

ENA (URMC-1) = assay: MIC determination; assay type: cell-based, Enterobacter aerogenes; details: Klebsiella aerogenes, CAMH broth, 20 μM Apo-Transferrin, 37° C., 18 hours, read-out: Minimum Inhibitory Concentrations, ENA (URMC-1)
Procedure: as §1, §2, §3, §4, §5, §6, §7

ENC (ATCC NDM-1) = assay: MIC determination; assay type: cell-based, Enterobacter cloacae; details: CAMH broth, 20 μM Apo-Transferrin, 37° C., 18 hours
Procedure: as §1, §2, §3, §4, §5, §6, §7

[1] = tested on: Pseudomonas aeruginosa PA-RR-(G8062859); assay: MIC determination; assay type: cell-based; details: Pseudomonas aeruginosa; PA-RR-(G8062859); CAMH broth, 20 μM Apo-Transferrin, 37° C., 18 hours; read-out: Minimum Inhibitory Concentrations, PA-RR-(G8062859)
Procedure, shortened: (§8)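 Broth microdilution in cation-adjusted Mueller-Hinton broth with 20 μM apo-transferrin, two-fold compound series from 64 μg/mL, inoculum adjusted to 0.5 McFarland from 4-5 h LB cultures. Plates incubated 18 h at 37 °C. MIC taken as lowest concentration leaving a clear well.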

[2] = tested on: Pseudomonas aeruginosa PA-RR-(980151052); assay: MIC determination; assay type: cell-based; details: Pseudomonas aeruginosa; PA-RR-(980151052); CAMH broth, 20 μM Apo-Transferrin, 37° C., 18 hours; read-out: Minimum Inhibitory Concentrations, PA-RR-(980151052)
Procedure, shortened: as §8

[3] = tested on: Pseudomonas aeruginosa PA (URMC-2); assay: MIC determination; assay type: cell-based; details: Pseudomonas aeruginosa; PA (URMC-2); CAMH broth, 20 μM Apo-Transferrin, 37° C., 18 hours; read-out: Minimum Inhibitory Concentrations, PA (URMC-2)
Procedure, shortened: as §8

[4] = tested on: Pseudomonas aeruginosa (PA); assay: MIC determination; assay type: cell-based; details: Pseudomonas aeruginosa; PA; CAMH broth, 20 μM Apo-Transferrin, 37° C., 18 hours; read-out: Minimum Inhibitory Concentrations, PA
Procedure, shortened: as §8

[5] = tested on: Pseudomonas aeruginosa PA (URMC-3); assay: MIC determination; assay type: cell-based; details: Pseudomonas aeruginosa; PA (URMC-3); CAMH broth, 20 μM Apo-Transferrin, 37° C., 18 hours; read-out: Minimum Inhibitory Concentrations, PA (URMC-3)
Procedure, shortened: as §8

[6] = tested on: Pseudomonas aeruginosa PA-RR-(G7304100); assay: MIC determination; assay type: cell-based; details: Pseudomonas aeruginosa; PA-RR-(G7304100); CAMH broth, 20 μM Apo-Transferrin, 37° C., 18 hours; read-out: Minimum Inhibitory Concentrations, PA-RR-(G7304100)
Procedure, shortened: as §8

Compound	Mimimum Inhibitory Concentrations, EA (URMC -3) (EA (URMC -3))	MIC (EC (URMC-2))	MIC (EC(KB2 CTX-M-15))	Mimimum Inhibitory Concentrations, EC (RR -2) (EC (RR -2))	MIC (EC(JMI OXA-48))	MIC (EC(KB1 CTX-M-15))	MIC (EC (URMC-3))	MIC (EC (URMC-1))	Mimimum Inhibitory Concentrations, EC (RR -1) (EC (RR -1))	MIC (EC(ATCC NDM-1))	Minimum Inhibitory Concentrations, KP(ATCC TEM-10/TEM-12) (KP(ATCC TEM-10/TEM-12))	Mimimum Inhibitory Concentrations, KP (RR -1) (KP (RR -1))	Minimum Inhibitory Concentrations, KP(GJ 5934 TEM-26) (KP(GJ 5934 TEM-26))	Minimum Inhibitory Concentrations, KP (ATCC KPC-3) (KP (ATCC KPC-3))	Minimum Inhibitory Concentrations, KP (URMC-3) (KP (URMC-3))	Minimum Inhibitory Concentrations, KP (GJ 5659 TEM-26) (KP (GJ 5659 TEM-26))	Minimum Inhibitory Concentrations, KP(JMI KPC-2) (KP(JMI KPC-2))	Minimum Inhibitory Concentrations, KP (URMC-1) (KP (URMC-1))	Minimum Inhibitory Concentrations, KP (URMC-2) (KP (URMC-2))	MIC (ENA (URMC-2))	also measured
CC(C)(O/N=C(\C(=O)N[C@@H]1C(=O)N2C(C(=O)O)=C(C=Cc3ccc(C[N+]4(C)CCc5cc(O)c(O)cc5C4)cc3)CS[C@H]12)c1csc(N)n1)C(=O)O (mixture of isomers) [Compound 407, 2-(4-((E/Z)-2-((6R,7R)-7-((Z)-2-(2-aminothiazol-4-yl)-2-(((2-carboxypropan-2-yl)oxy)imino)acetamido)-2-carboxy-8-oxo-5-thia-1-azabicyclo[4.2.0]oct-2-en-3 yl)vinyl)benzyl)-6,7-dihydroxy-2-methyl-1,2,3,4-tetrahydroisoquinolin-2-ium]	2 microgram/mL	0.25 µg/mL	> 64 µg/mL	0.13 microgram/mL	16 µg/mL	> 64 µg/mL	≤ 0.06 µg/mL	0.25 µg/mL	0.13 microgram/mL	> 64 µg/mL	0.25 microgram/mL	0.5 microgram/mL	2 microgram/mL	64 microgram/mL	0.13 microgram/mL	2 microgram/mL	16 microgram/mL	0.13 microgram/mL	0.25 microgram/mL	0.5 µg/mL	MIC (ENA (URMC-1)): 0.5 µg/mL; Mimimum Inhibitory Concentrations, ENC (ATCC NDM-1) (ENC (ATCC NDM-1)): >64 microgram/mL; MIC [1]: 0.06 µg/mL; MIC [2]: 0.06 µg/mL; MIC [3]: 4 µg/mL; MIC [4]: 2 µg/mL; MIC [5]: 0.25 µg/mL; MIC [6]: 0.03 µg/mL
CC(C)(O/N=C(\C(=O)N[C@@H]1C(=O)N2C(C(=O)O)=C(C=Cc3ccc(C[n+]4ccc(-c5ccc(O)c(O)c5)cc4)cc3)CS[C@H]12)c1csc(N)n1)C(=O)O (mixture of isomers) [Compound 412, 1-(4-((E/Z)-2-((6R,7R)-7-((Z)-2-(2-aminothiazol-4-yl)-2-(((2-carboxypropan-2-yl)oxy)imino)acetamido)-2-carboxy-8-oxo-5-thia-1-azabicyclo[4.2.0]oct-2-en-3-yl)vinyl)benzyl)-4-(3,4-dihydroxyphenyl)pyridin-1-ium]	≤0.06 microgram/mL	4 µg/mL	32 µg/mL	≤0.06 microgram/mL	2 µg/mL	16 µg/mL	≤ 0.06 µg/mL	0.25 µg/mL	0.25 microgram/mL	> 64 µg/mL	32 microgram/mL	0.5 microgram/mL	0.5 microgram/mL	>64 microgram/mL	0.25 microgram/mL	2 microgram/mL	64 microgram/mL	≤0.06 microgram/mL	≤0.06 microgram/mL	0.13 µg/mL	MIC (ENA (URMC-1)): 0.25 µg/mL; Mimimum Inhibitory Concentrations, ENC (ATCC NDM-1) (ENC (ATCC NDM-1)): >64 microgram/mL; MIC [1]: 1 µg/mL; MIC [2]: 4 µg/mL; MIC [3]: 2 µg/mL; MIC [4]: 2 µg/mL; MIC [5]: ≤ 0.06 µg/mL; MIC [6]: ≤ 0.06 µg/mL
